Assay type in all cases: cell-based
The subject of one experiment is Alternaria solani. In words: Alternaria solani (early blight of tomato/potato) in vitro test, radial growth on Potato Dextrose Agar. Particulars: 168 h, 300 ppm, seven days, 25° C., read-out: % control compared to the untreated check (radial growth).
The subject of a further experiment is Colletotrichum capsici. In words: Colletotrichum capsici (anthracnose) in vitro test, radial growth on Potato Dextrose Agar. Conditions: Colletotrichum truncatum, 168 h; 300 ppm; seven days, 25° C.; read-out: % control compared to the untreated check (radial growth).
The next experiment deals with Rhizoctonia solani. Briefly: Rhizoctonia solani (rice sheath blight/potato black scurf) in vitro test, radial growth on Potato Dextrose Agar. Particulars: 168 h, 300 ppm, seven days, 25° C., read-out: % control compared to the untreated check (radial growth).
For a further experiment, the system named is Fusarium culmorum. In words: Fusarium culmorum (foot rot of cereals) in vitro test, radial growth on Potato Dextrose Agar. Conditions: for inhibition of growth at 300 ppm: Fusarium culmorum, 168 h, read-out: % control compared to the untreated check (radial growth); for % control compared to the untreated check (radial growth): 300 ppm, seven days, 25° C.

A further experiment deals with Pyricularia oryzae. In words: microbe, parasite or virus in culture. Conditions: 168 h, read-out: % control compared to the untreated check (radial growth).
The test system of the next experiment is Botrytis cinerea. Briefly: Botrytis cinerea (gray mold) in vitro test, radial growth on Potato Dextrose Agar. Conditions: 168 h, 300 ppm, seven days, 22° C., read-out: % (control) compared to the untreated check (radial growth).
A further experiment has as its system Septoria lycopersici. In words: Septoria lycopersici (leaf spot of tomato) in vitro test, radial growth on Potato Dextrose Agar. Particulars: 168 h, seven days, 25° C., read-out: % control compared to the untreated check (radial growth).

Bounds are passed on as bounds.

20 compounds from patent US11155517B2, “4-substituted phenylamine derivatives and their use to protect crops by fighting undesired phytopathogenic micoorganisms” (PI INDUSTRIES LTD., priority 2016, dated 2021) can be followed below.

On to `CCN(C)C=Nc1cc(F)c(Cc2cccc(F)c2)cc1F` [Compound 269, N′-(2,5-difluoro-4-(3-fluorobenzyl)phenyl)-N-ethyl-N-methylformimidamide], for which the inhibition of growth at 300 ppm in the experiment on Alternaria solani is more than 75%; in the experiment with Colletotrichum capsici, more than 80%; in the experiment with Rhizoctonia solani it was more than 80%; in the experiment with Fusarium culmorum, 75%; in the experiment with Pyricularia oryzae, more than 75%; with Botrytis cinerea, more than 80%.
Regarding `CCN(C)C=Nc1cc(C)c(Cc2ccc(F)cc2Cl)cc1Cl` [Compound 99, N′-(2-chloro-4-(2-chloro-4-fluorobenzyl)-5-methylphenyl)-N-ethyl-N-methylformimidamide], the inhibition of growth at 300 ppm with Alternaria solani is more than 75%; in the experiment on Colletotrichum capsici, more than 80%; in the experiment on Rhizoctonia solani, more than 80%; in the experiment with Fusarium culmorum it was 75%; in the experiment with Pyricularia oryzae, more than 75%; with Botrytis cinerea, more than 80%.
Turning to `CCN(C)C=Nc1cc(C)c(Cc2cccc(C(F)(F)F)c2)cc1Cl` [Compound 80, N′-(2-chloro-5-methyl-4-(3-(trifluoromethyl)benzyl)phenyl)-N-ethyl-N-methylformimidamide], the inhibition of growth at 300 ppm in the experiment on Alternaria solani was more than 75%; in the experiment with Colletotrichum capsici, more than 80%; in the experiment with Rhizoctonia solani, more than 80%; in the experiment with Fusarium culmorum, 75%; in the experiment with Pyricularia oryzae, more than 75%; in the experiment on Botrytis cinerea, more than 80%.
Turning to `CCN(C)C=Nc1cc(C)c(Cc2ccc(C)cc2)cc1F` [Compound 211, N-ethyl-N-(2-fluoro-5-methyl-4-(4-methylbenzyl)phenyl)-N-methylformimidamide], in the experiment with Fusarium culmorum, the “% control compared to the untreated check (radial growth)” value (“% control” for short) was found to be 75%.
As to `CCN(C)C=Nc1cc(C)c(Cc2ccc(OC(F)(F)F)cc2)cc1Cl` [Compound 121, N′-(2-chloro-5-methyl-4-(4-(trifluoromethoxy)benzyl)phenyl)-N-ethyl-N-methylformimidamide], the inhibition of growth at 300 ppm with Alternaria solani is more than 75%; with Colletotrichum capsici, more than 80%; in the experiment on Rhizoctonia solani, more than 80%; with Fusarium culmorum it was 75%; in the experiment on Pyricularia oryzae it was more than 75%; with Botrytis cinerea it was more than 80%.
Take `CCN(C)C=Nc1cc(C)c(C(C#N)c2ccc(F)cc2)cc1Cl` (centres unmarked) [Compound 189, N′-(2-chloro-4-(cyano(4-fluorophenyl)methyl)-5-methylphenyl)-N-ethyl-N-methylformimidamide]: the inhibition of growth at 300 ppm in the experiment on Rhizoctonia solani was more than 80%; in the experiment on Fusarium culmorum, 75%; in the experiment with Pyricularia oryzae, more than 75%; in the experiment on Botrytis cinerea, more than 80%.
`CCN(C)C=Nc1cc(C)c(Cc2cc(F)cc(F)c2)cc1C` [Compound 132, N′-(4-(3,5-difluorobenzyl)-2,5-dimethylphenyl)-N-ethyl-N-methylformimidamide]: the inhibition of growth at 300 ppm in the experiment with Alternaria solani is more than 75%; in the experiment on Colletotrichum capsici, more than 80%; in the experiment with Rhizoctonia solani, more than 80%; in the experiment with Fusarium culmorum, 75%; with Pyricularia oryzae, more than 75%; with Botrytis cinerea it was more than 80%.
Turning to `CCN(C)C=Nc1cc(C)c(Cc2ccc(Cl)c(OC(F)(F)F)c2)cc1Cl` [Compound 177, N′-(2-chloro-4-(4-chloro-3-(trifluoromethoxy)benzyl)-5-methylphenyl)-N-ethyl-N-methylformimidamide], the inhibition of growth at 300 ppm with Alternaria solani was more than 75%; in the experiment with Colletotrichum capsici it was more than 80%; with Rhizoctonia solani, more than 80%; in the experiment with Septoria lycopersici, more than 70%; in the experiment with Pyricularia oryzae, more than 75%; in the experiment with Botrytis cinerea it was more than 80%.
On to `CCN(C)C=Nc1ccc(Cc2ccccc2F)cc1` [Compound 163, N-ethyl-N′(4-(2-fluorobenzyl)phenyl)-N-methylformimidamide], for which the inhibition of growth at 300 ppm is more than 75% with Alternaria solani; more than 80% with Colletotrichum capsici; more than 80% with Rhizoctonia solani; more than 70% with Septoria lycopersici; more than 75% in the experiment with Pyricularia oryzae; more than 80% in the experiment with Botrytis cinerea.
As for `CCN(C)C=Nc1cc(C)c(Cc2cc(F)cc(OC)c2)cc1C` [Compound 156, N-ethyl-N′-(4-(3-fluoro-5-methoxybenzyl)-2,5-dimethylphenyl)-N-methylformimidamide], the inhibition of growth at 300 ppm in the experiment on Alternaria solani was more than 75%; in the experiment on Colletotrichum capsici it was more than 80%; in the experiment with Rhizoctonia solani, more than 80%; with Fusarium culmorum it was 75%; in the experiment with Pyricularia oryzae it was more than 75%; in the experiment with Botrytis cinerea, more than 80%.
Turning to `CCN(C)C=Nc1cc(Cl)c(Cc2ccccc2Cl)cc1C` [Compound 255, N′-(5-chloro-4-(2-chlorobenzyl)-2-methylphenyl)-N-ethyl-N-methylformimidamide], the inhibition of growth at 300 ppm with Alternaria solani is more than 75%; in the experiment with Colletotrichum capsici it was more than 80%; in the experiment on Rhizoctonia solani, more than 80%; with Septoria lycopersici it was more than 70%; in the experiment on Pyricularia oryzae, more than 75%; in the experiment on Botrytis cinerea, more than 80%.
For the compound `CCN(C)C=Nc1cc(C#N)c(Cc2ccccc2Cl)cc1C` [Compound 246, N′-(4-(2-chlorobenzyl)-5-cyano-2-methylphenyl)-N-ethyl-N-methylformimidamide], the inhibition of growth at 300 ppm with Alternaria solani is more than 75%; with Colletotrichum capsici it was more than 80%; in the experiment with Rhizoctonia solani, more than 80%; with Septoria lycopersici, more than 70%; in the experiment on Pyricularia oryzae it was more than 75%; in the experiment on Botrytis cinerea, more than 80%.
For `CCN(C)C=Nc1cc(F)c(Cc2ccccc2Cl)cc1F` [Compound 253, N′-(4-(2-chlorobenzyl)-2,5-difluorophenyl)-N-ethyl-N-methylformimidamide], the inhibition of growth at 300 ppm with Alternaria solani is more than 75%; in the experiment on Rhizoctonia solani, more than 80%; in the experiment on Fusarium culmorum, 75%; in the experiment on Pyricularia oryzae, more than 75%; with Botrytis cinerea it was more than 80%.
On to `CCN(C)C=Nc1cc(C)c(Cc2cccc(C)c2C)cc1Cl` [Compound 170, N-(2-chloro-4-(2,3-dimethylbenzyl)-5-methylphenyl)-N-ethyl-N-methylformimidamide], for which the “% control” value in the experiment with Fusarium culmorum worked out at 75%.
As to `Cc1cc(N=CN(C)CC2CC2)c(C)cc1Cc1ccccc1F` [Compound 87, N-(cyclopropylmethyl)-N-(4-(2-fluorobenzyl)-2,5-dimethylphenyl)-N-methylformimidamide], in the experiment on Fusarium culmorum, the “% control” value is reported as 75%.
Take `CCN(C)C=Nc1ccc(Cc2ccccc2Cl)c2ccccc12` [Compound 270, N′-(4-(2-chlorobenzyl)naphthalen-1-yl)-N-ethyl-N-methylformimidamide]: the inhibition of growth at 300 ppm in the experiment with Alternaria solani is more than 75%; in the experiment on Colletotrichum capsici, more than 80%; in the experiment with Rhizoctonia solani it was more than 80%; in the experiment on Septoria lycopersici, more than 70%; with Pyricularia oryzae, more than 75%; in the experiment on Botrytis cinerea it was more than 80%.
As for `CCN(C)C=Nc1cc(C)c(Cc2ccc(F)c(C(F)(F)F)c2)cc1Cl` [Compound 181, N′-(2-chloro-4-(4-fluoro-3-(trifluoromethyl)benzyl)-5-methylphenyl)-N-ethyl-N-methylformimidamide], the inhibition of growth at 300 ppm with Alternaria solani was more than 75%; in the experiment on Rhizoctonia solani it was more than 80%; in the experiment with Fusarium culmorum, 75%; with Pyricularia oryzae, more than 75%; with Botrytis cinerea, more than 80%.
Turning to `CCN(C)C=Nc1cc(C)c(Cc2cc(C(F)(F)F)cc(C(F)(F)F)c2)cc1C` [Compound 106, N′-(4-(3,5-bis(trifluoromethyl)benzyl)-2,5-dimethylphenyl)-N-ethyl-N-methylformimidamide], the inhibition of growth at 300 ppm in the experiment on Alternaria solani was more than 75%; with Colletotrichum capsici, more than 80%; in the experiment on Rhizoctonia solani, more than 80%; with Septoria lycopersici, more than 70%; in the experiment on Pyricularia oryzae, more than 75%; in the experiment with Botrytis cinerea it was more than 80%.
As to `CCN(C)C=Nc1cc(C)c(Cc2cc(C)cc(C)c2)cc1Cl` [Compound 130, N′-(2-chloro-4-(3,5-dimethylbenzyl)-5-methylphenyl)-N-ethyl-N-methylformimidamide], the inhibition of growth at 300 ppm was more than 75% in the experiment on Alternaria solani; more than 80% in the experiment with Colletotrichum capsici; more than 80% in the experiment with Rhizoctonia solani; more than 70% in the experiment on Septoria lycopersici; more than 75% in the experiment with Pyricularia oryzae; more than 80% in the experiment on Botrytis cinerea.
On to `Cc1cc(N=CN2CCCCC2)c(C)cc1Cc1cccc(Br)c1F` [Compound 37, N-(4-(3-bromo-2-fluorobenzyl)-2,5-dimethylphenyl)-1-(piperidin-1-yl)methanimine], for which the inhibition of growth at 300 ppm in the experiment with Alternaria solani was more than 75%; in the experiment with Colletotrichum capsici it was more than 80%; in the experiment on Rhizoctonia solani, more than 80%; with Septoria lycopersici it was more than 70%; in the experiment on Pyricularia oryzae, more than 75%; with Botrytis cinerea it was more than 80%.
